# Reference: US20060093580A1, “Tolerogenic vaccine and method” (priority 2004, published 2006)
# “And” between values parts separate entries of the source, which are not always exact repeats. Equal entries are not always repeated. “Also recorded” adds a separate entry of the source. Where two headings read alike, the source gives them in different places.
# Columns and labels:
# [1] = test system: CD4^+CD25^− T cells; assay: 3H-thymidine proliferation after anti-CD3 stimulation with or without exogenous IL-2; type: cell-based, mouse; conditions: 0.3%
# Procedure: (§1) (B) 1-butanol effect on the proliferative response of CD4^+CD25^− and CD4^+CD25^+ T cells to anti-CD3 or anti-CD3^+ exogenous IL-2. […] Proliferation of cells was measured as in FIG. 1B.
# (§2) (D) CD4^+CD25^− and CD4^+CD25^+ T cells (2×10^4 cells/well) were stimulated by anti-CD3 in the absence (left panel) or presence (right panel) of exogenous IL-2. […] [3H]-thymidine uptake was measured 72 hours later.
# (§3) For determination of cell division, T cells were labeled with 1 μM CFSE (Molecular Probes, Eugene, Oreg.) for 15 minutes at 37° C. CFSE-labeled T cells (5×10^5 cells/ml) were cultured with 0.2 μg/ml of anti-CD3 with APCs (T cell-depleted splenocytes, γ-irradiated with 2000 rads, 8×10^5 cells/ml). […] After 72 hours, cells were harvested and stained with antibody against CD4 and CD8. The number of cell divisions was determined by flow cytometry. Exogenous IL-2 was added at 50 units/ml where indicated. For the proliferation assay, ^3H-thymidine (0.5 μCi/well) was added for the last 6 hours of culture. Cytokine assays were performed by enzyme-linked immunoassays as previously described (Singh, N. et al. (1999), J. Immunol. 163:2373-2377).
# We also examined the effect of 1-alcohol on the proliferation of CD4^+CD25^− and CD4^+CD25^+ cells. CD4^+CD25^− and CD4^+CD25^+ cells were isolated from splenocytes using a MoFlo cell sorter. Each cell type was stimulated with anti-CD3 antibody in the presence of irradiated APCs with or without the addition of exogenous IL-2. Proliferation was measured by ^3H-thymidine incorporation on day 3.
# [2] = test system: ERK; assay: Anti-CD3-induced ERK activation (phospho-ERK staining); type: cell-based, mouse; conditions: anti-CD3 + APCs, 3 hours
# Procedure: (D) Effect of 1-butanol on antl-CD3-induced ERK activation. CD4 T cells were stimulated with anti-CD3 and APCs for 3 hours and stained with antibody against phospho-ERK. […] Thick lines show the data from stimulated cells and thin lines show data from unstimulated cells.
# TCR stimulation also induces activation of the Ras/ERK pathway, and sustained ERK activation is essential for IL-2 production (Iwashima, M. (May, 2003), Immunol. Review 192; T. Koike et al., J. Biol. Chem. 278:15685-15692).
# [3] = test system: CD4 Foxp3^+ cells; assay: Foxp3 and CTLA-4 flow cytometry of CD4 T cells expanded with alcohol; type: cell-based, mouse
# Procedure: (B) Foxp3 and CTLA4 levels were determined by flow cytometry analysis of CD4^med, CD4^t-but or CD4^1-but cells at day 1 (upper panels) and day 8 (lower panels).
# After 3 days of culture with alcohol, cells were expanded in the medium free of alcohol but containing IL-2 for 4 days and analyzed by flow cytometry with Foxp3 and CTLA-4.
# [4] = test system: CD4^+ T cells
# Procedure: Purified CD4 T cells were pre-incubated with 1-but (0.3%), t-but (0.3%), or medium alone for 15 hours. […] These cells were then stimulated with anti-CD3 antibody and γ-irradiated APCs and exogenous IL-2. […] On day 3, cells were washed and plated in medium containing IL-2 but no anti-CD3 or alcohol. On day 7, cells were washed and used for the functional analysis.
# On day 3, cells were harvested, washed and placed in medium containing 20 units/ml IL-2. On day 7, cells were washed, counted, and used for the regulatory function analysis.
# [5] = test system: CD4^+CD25^− T cells; assay: CD25 expression by flow cytometry after anti-CD3 stimulation; type: cell-based, mouse; conditions: anti-CD3 + APCs, 16 hours
# Procedure: (§4) After 16 hours of stimulation, expression of CD25 was analyzed by flow cytometry. Dotted lines represent the staining level of unstimulated cells.
# [6] = test system: splenic CD4 and CD8 T cells; assay: CFSE cell division of anti-CD3-stimulated splenic T cells; type: cell-based, mouse; conditions: 0.3% alcohol, anti-CD3 + irradiated APCs, 72 hours
# Procedure: as §3
# [7] = test system: splenic CD4^+ T cells; assay: Anti-CD3-induced elevation of intracellular Ca2+ (Fura2-AM); type: cell-based, mouse; conditions: added together with stimulating antibody
# Procedure: (C) 1-butanol effect on anti-CD3-induced elevation of intracellular Ca2^+. CD4 T cells were labeled with Fura2-AM and activated with biotin conjugated anti-CD3 and streptavidin. […] Levels of Ca2^+ were determined by the ratio of fluorescence at 340/380 nm.
# To further elucidate the role of PLD in T cell activation, TCR proximal signaling events were examined. First, the effect of 1-butanol on the elevation of intracellular Ca^2+ was determined. […] Elevation of intracellular Ca^2+ is required for activation of transcription factors, such as NF-AT, which are essential for CD25 and IL-2 expression (Crabtree, G. R. and Olson, E. N. (2002), Cell 109(Suppl):867-879; Hogan, P. G. et al. (Sep. 15, […]), Genes Dev. 17:2205-[…]).
# [8] = test system: CD4^+CD25^+ T cells
# Procedure: as §4
# [9] = test system: CD4^+CD25^− T cells
# Procedure: (I) Cytokine production by 1-but and t-but-treated CD4^+25^− and CD4^+25^+ T cells. CD4^+25^− and CD4^+25^+ T cells were stimulated as described in FIG. 3A. The same supernatants were used to measure the amount of IL-4 (left panel) and IFN-γ (right panel). Closed bars show medium-treated T cells, gray bars show t-but- treated T cells, and open bars show 1-but-treated T cells.
# (A) Effect of 1-butanol on anti-CD3-induced IL-2 production. […] IL-2 production was determined by ELISA of culture supernatants obtained after 24 hours of stimulation.
# as §3
# [10] = test system: CD4^+CD25^+ T cells; conditions: 0.3%, activation by anti-CD3 and IL-2
# Procedure: as §1, §2, §3
# We also examined the effect of 1-alcohol on the proliferation of CD4^+CD25^− and CD4^+CD25^+ cells. CD4^+CD25^− and CD4^+CD25^+ cells were isolated from splenocytes using a MoFlo cell sorter. […] Proliferation was measured by ^3H-thymidine incorporation on day 3.
# [11] = test system: CD4^+CD25^− T cells; assay: In vitro suppression assay; type: cell-based, mouse; conditions: 1-butanol and anti-CD3 treatment
# Procedure: CD4^+CD25^− T cells (2.5×10^4 cells) were cultured with graded doses of CD4^med cells (open circles), CD4^t-but cells (open squares) or CD4^1-but cells (closed squares) for 72 hours with anti-CD3 antibody and APCs. Proliferation of cells was measured as in (B).
# Cells were cultured as in (C) using equal numbers of CD4^+CD25^− cells and CD4^med cells, CD4^1-but cells, or CD4^t-but cells. Production of IL-2 after 24 hours of co-culture was measured.
# (H) Effect of CD4^med, CD4^t-but, and CD4^1-but cells on cytokine production by CD4^+25^− T cells. CD4^+25^− T cells were stimulated and co-cultured with CD4^med cells (med), CD4^t-but cells (t-but), or CD4^1-but cells (1-but) as described in FIG. 1D. IL-4 and IFN-γ in the culture supernatants were measured by ELISA.
# Suppression of freshly isolated CD4^+CD25^− cells was measured as in FIG. 1C.
# Suppressive effects were measured by ^3H-thymidine incorporation or by cytokine production.
# [12] = test system: PLD; assay: TCR-induced PLD activity (3H-oleate labelling, PA and Pet by TLC); type: cell-based, mouse; conditions: 100 μM, plate-bound anti-CD3 40 minutes, 0.5% ethanol, primary T cells
# Source text: FIG. 5 Effect of adenosine on TCR-induced PLD activation. (A) Phosphatidic acid production by primary CD4 T cells stimulated with anti-CD3 antibodies in the presence of ethanol (open bar) and adenosine (closed bar) compared with unstimulated T cells. (B) Phosphatidylethanol (Pet) production by primary CD4 Mouse CD4 T cells stimulated with anti-CD3 antibodies in the presence of ethanol (open bar) and adenosine (closed bar) compared with unstimulated T cells.
# Mouse CD4 T cells were labeled with ^3H-oleate to measure PLD activity (Zheng, et al. (2003), Biochim. Biophys. Acta. 1643(1-3):25-36). Cells were then washed and activated by plate-bound anti-CD3 for 40 minutes in the presence of 0.5% of ethanol (open bar). Effect of adenosine was examined using the medium containing 100 μM of adenosine (closed bar). Cells were harvested and lipid extracts of cells were separated on TLC plates and bands corresponding to phosphatidic acid (PA) (FIG. 5A) and phosphatidylethanol (Pet) (FIG. 5B) were excised and counted by liquid scintillation.
# [13] = test system: PLD; conditions: Thibault 2000; Grenier 2003; cited from earlier work
# [14] = anti-CD3 + APCs, 3H-thymidine at 72 hours
smiles,measurement,setting,value
"CC(C)(C)O [t-butanol, Tert-butanol]",effect on proliferation of CD4^+CD25^− cells,[1]; [14],no significant effect
same,CD3-induced elevation of phosphorylated ERK,[2],no detectable effect
same,cells expressing Foxp3 and CTLA-4 (in words),"[3]; 3 days with 0.3% alcohol, then 4 days IL-2 without alcohol",almost no cells
same,Numbers of live cells obtained from 1 × 10^6 CD4^+ T cells,"[4]; 0.3% alcohol, anti-CD3 + APCs + IL-2, day 7, mean +/− standard deviation, experiments 1-3",18.5 ± 2.1 ×10^6 and 13 ± 2 ×10^6 and 14 ± 2 ×10^6
same,expression of CD25 by CD4^+CD25^− T cells,[5],did not elicit a significant effect
same,anti-CD3 induced cell division,[6],no significant effect
same,anti-CD3-induced elevation of intracellular Ca^2+,[7],No significant effect
CCCCO [1-butanol],reduction of proliferation of CD4^+CD25^− cells,[1]; [14],80%
same,proliferation of treated CD4^+CD25^− cells on addition of exogenous IL-2,[1]; anti-CD3 + exogenous IL-2,did not restore proliferation; also recorded: did not rescue the proliferation
same,CD3-induced elevation of phosphorylated ERK,[2],abolished
same,expansion of Foxp3^+ cells (total cell number),[3]; in one week,more than 10 fold
same,Numbers of live cells obtained from 1 × 10^6 CD4^+ T cells,[4],3.1 ± 0.3 ×10^6 and 2.5 ± 0.5 ×10^6 and 3.4 ± 0.5 ×10^6
same,cells recovered from 1×10^6 CD4^+CD25^− cells,[4],5×10^5 cells
same,cells recovered from 1×10^6 total CD4^+ cells,[4],3.6×10^6 cells
same,decrease in final yield on removal of CD25^+ T cells prior to treatment,[4],80%
same,viability or surface antigen expression after pre-incubation,[4],no difference
same,expression of CD25 by CD4^+CD25^− T cells,[5],blocked the expression
same,up-regulation of CD25 expression in CD4^+CD25^+ T cells,"[8]; anti-CD3 + APCs, 16 hours",not affected
same,expression of CD69 by CD4^+CD25^+ T cells,[8]; not shown,did not impair
same,production of IL-2 by CD4^+CD25^− T cells,"[9]; anti-CD3, 24 hours, ELISA",blocked production
same,IFN-γ production,"[9]; anti-CD3, ELISA",abrogated
same,IL-4 production,"[9]; anti-CD3, ELISA",abrogated
same,anti-CD3 induced cell division,[6],abrogated cell division
same,anti-CD3-induced elevation of intracellular Ca^2+,[7],substantially impaired
same,effect on proliferation of CD4^+CD25^+ T cells,[10],no effect
same,suppressive activity of population expanded from total CD4^+ T cells,[11],strong suppressive activity
same,suppressive function of population expanded from CD4^+ T cells with CD25^+ cells removed,[11],no suppressive function
Nc1ncnc2c1ncn2[C@@H]1O[C@H](CO)[C@@H](O)[C@H]1O [adenosine],PLD activity induced by TCR stimulation,[12],completely abrogated
same,PLD activation in neutrophils,[13],inhibit PLD activation
